# Target: Phospholipase D1 (Homo sapiens) (UniProt Q13393)
# Assay: PLD1 inhibitor potency in cells, dose response (AID 602151)
# Settings: cellular PLD1 activity assay
# Chain of Phospholipase D1 (Homo sapiens) (Q13393 whole entry, looked up): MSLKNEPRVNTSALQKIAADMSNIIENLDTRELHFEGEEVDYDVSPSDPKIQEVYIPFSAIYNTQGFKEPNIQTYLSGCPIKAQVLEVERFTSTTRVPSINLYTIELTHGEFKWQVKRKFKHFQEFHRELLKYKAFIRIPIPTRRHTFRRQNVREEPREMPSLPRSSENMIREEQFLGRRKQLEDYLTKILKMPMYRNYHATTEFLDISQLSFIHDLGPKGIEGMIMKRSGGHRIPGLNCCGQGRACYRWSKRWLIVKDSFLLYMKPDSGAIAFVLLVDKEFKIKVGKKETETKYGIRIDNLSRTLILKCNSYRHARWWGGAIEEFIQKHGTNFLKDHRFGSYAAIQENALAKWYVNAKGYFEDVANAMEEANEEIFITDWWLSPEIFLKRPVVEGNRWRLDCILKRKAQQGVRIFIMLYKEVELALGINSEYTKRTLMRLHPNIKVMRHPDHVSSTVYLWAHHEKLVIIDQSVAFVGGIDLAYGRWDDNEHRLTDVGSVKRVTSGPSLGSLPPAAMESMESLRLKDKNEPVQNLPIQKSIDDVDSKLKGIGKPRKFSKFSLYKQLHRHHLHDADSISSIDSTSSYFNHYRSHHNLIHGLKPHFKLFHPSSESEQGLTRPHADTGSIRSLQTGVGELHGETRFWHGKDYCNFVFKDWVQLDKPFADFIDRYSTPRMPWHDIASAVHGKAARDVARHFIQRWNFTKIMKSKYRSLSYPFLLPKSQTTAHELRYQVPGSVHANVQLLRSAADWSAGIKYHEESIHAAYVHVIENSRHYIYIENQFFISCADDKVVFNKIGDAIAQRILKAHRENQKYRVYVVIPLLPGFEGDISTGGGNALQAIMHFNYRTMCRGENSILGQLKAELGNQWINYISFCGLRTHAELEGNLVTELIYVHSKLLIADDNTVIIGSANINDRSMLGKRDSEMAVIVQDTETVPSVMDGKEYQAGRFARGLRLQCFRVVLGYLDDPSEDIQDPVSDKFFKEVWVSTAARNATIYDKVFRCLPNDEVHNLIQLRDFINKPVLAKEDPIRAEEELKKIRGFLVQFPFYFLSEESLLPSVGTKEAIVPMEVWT
# Chain of Phospholipase D1 (Homo sapiens) (Q13393 whole entry, looked up): as above
row,Structure (SMILES),IC50 [nM]
1,O=C(NCCN1CCC2(CC1)C(=O)NCN2c1ccc(F)c(F)c1)c1cnc2ccccc2c1,2060
2,O=C(NCCN1CCC2(CC1)C(=O)NCN2c1ccc(F)c(F)c1)c1cc2cc(F)ccc2[nH]1,390
3,O=C(NCCN1CCC2(CC1)C(=O)NCN2c1ccc(F)c(F)c1)c1ccc(F)cc1,5780
4,O=C(NCCN1CCC2(CC1)C(=O)NCN2c1cccc(Cl)c1)c1cc2cc(F)ccc2[nH]1,250
5,C[C@@H](CN1CCC2(CC1)C(=O)NCN2c1cccc(F)c1)NC(=O)c1ccc2ccccc2c1,10
6,O=C(C#Cc1ccccc1)NCCN1CCC2(CC1)C(=O)NCN2c1ccccc1,2130
7,O=C(NCCN1CCC2(CC1)C(=O)NCN2c1ccc(Br)cc1)c1ccc2ccccc2c1,5900
8,O=C(NCCN1CCC2(CC1)C(=O)NCN2c1cccc(F)c1)c1cc2cc(F)ccc2[nH]1,210
9,O=C(NCCN1CCC2(CC1)C(=O)NCN2c1ccc(F)c(F)c1)c1ccc2ccccc2c1,2810
10,O=C(NCCN1CCC2(CC1)C(=O)NCN2c1ccc(F)cc1)c1cc2cc(F)ccc2[nH]1,290
11,O=C(NCCN1CCC2(CC1)C(=O)NCN2c1ccc(F)cc1)c1ccc(F)cc1,14000
12,C[C@@H](CN1CCC2(CC1)C(=O)NCN2c1ccccc1)NC(=O)c1ccc(F)c(F)c1,150
13,COc1cc(C(=O)NCCN2CCC3(CC2)C(=O)NCN3c2ccccc2)ccc1N,5900
14,O=C(NCCN1CCC2(CC1)C(=O)NCN2c1ccc(Cl)cc1)c1ccc2ccccc2c1,2270
15,O=C(NCCN1CCC2(CC1)C(=O)NCN2c1ccccc1)c1cc2ccccc2s1,150
16,O=C(NCCN1CCC2(CC1)C(=O)NCN2c1cccc(Cl)c1)c1ccc2ccccc2c1,1200
17,O=C(NCCN1CCC2(CC1)C(=O)NCN2c1ccc(Br)cc1)c1cnc2ccccc2c1,2700
18,Cc1cccc(C(=O)N[C@@H](C)CN2CCC3(CC2)C(=O)NCN3c2ccccc2)c1,3400
19,O=C(NCCN1CCC2(CC1)C(=O)NCN2c1ccc(Cl)cc1)c1cc2cc(F)ccc2[nH]1,335
20,O=C(NCCN1CCC2(CC1)C(=O)NCN2c1ccc(F)cc1)c1cnc2ccccc2c1,2000
21,O=C(NCCN1CCC2(CC1)C(=O)NCN2c1ccc(Br)cc1)c1cc2cc(F)ccc2[nH]1,2660
22,O=C(NCCN1CCC2(CC1)C(=O)NCN2c1ccccc1)c1cnc2ccccc2c1,1900
23,O=C(NCCN1CCC2(CC1)C(=O)NCN2c1ccc(Br)cc1)c1ccc(F)cc1,10000
24,O=C(NCCN1CCC2(CC1)C(=O)NCN2c1ccc(F)cc1)c1ccc2ccccc2c1,1700
25,O=C(NCCN1CCC2(CC1)C(=O)NCN2c1ccc(Cl)cc1)c1ccc(F)cc1,5590
26,O=C(NCCN1CCC2(CC1)C(=O)NCN2c1ccc(Cl)cc1)c1cnc2ccccc2c1,3500
27,O=C(NCCN1CCC2(CC1)C(=O)NCN2c1cccc(F)c1)c1cnc2ccccc2c1,2500
28,O=C(NCCN1CCC2(CC1)C(=O)NCN2c1cccc(Cl)c1)c1ccc(F)cc1,3470
29,O=C(NCCN1CCC2(CC1)C(=O)NCN2c1cccc(Cl)c1)c1cnc2ccccc2c1,870

# From PubChem BioAssay AID602151 (Vanderbilt Specialized Chemistry Center, 2011)
